The text below walks through data of patent US4939163A, “Anticonvulsant agents” (Eli Lilly and Company, priority 1989, dated 1990).

One may read the ED50 as the dose that gives a 50% effect, or the effect in half of the subjects. Lower therefore signals greater potency.

The subject of one assay is tonic extensor seizures elicited by maximal electroshock. In words: electroshock induced convulsion inhibition assay (E.S.). Format: in vivo, Cox standard strain albino male mice. To be noted: mouse, oral dose (gavage), 0.1 second 50 milliampere corneal electroshock, inhibition of extensor tonic convulsions, at time of optimal response. How it is done: In the electroshock induced convulsion inhibition assay (E.S.), the compound to be tested was suspended in acacia and administered by gavage to each of ten Cox standard strain albino male mice (18-24 g) at the dose level being investigated. […] The animals were examined and evaluated immediately after the electroshock for the occurrence of clonic, flexor tonic, or extensor tonic convulsions, or death and the ED50 was determined for each compound as the dose which inhibited the occurrence of extensor tonic convulsions in one half of the animals immediately after the electroshock. For comparison, 18 milliamperes was usually sufficient to produce extensor tonic convulsions in about half of the control animals; at 50 milliamperes, almost all control animals (receiving vehicle only) died. The test results summarized in Table I are reported as the ED50 values at the time interval found to provide an optimal response after dosing.
With `Cc1cccc(C)c1NC(=O)c1ccc(C(F)(F)F)cc1` [Example 1, N-(2,6-dimethylphenyl)-4-(trifluoromethyl)benzamide], the ED50 is roughly 225 mg/kg.
`Cc1cccc(C)c1NC(=O)c1ccc(C#N)cc1` [Example 2, 4-Cyano-N-(2,6-dimethylphenyl)benzamide]: it took a dose of 13.2 mg/kg to reach the 50% effect level (ED50).
Still for that read-out and setting: to `Cc1ccc(C(=O)Nc2c(C)cccc2C)cc1` [Example 3, N-(2,6-dimethylphenyl)-4-methylbenzamide] belongs roughly 250 mg/kg; to `COc1ccc(C(=O)Nc2c(C)cccc2C)cc1` [Example 4, N-(2,6-dimethylphenyl)-4-methoxybenzamide], 15 mg/kg.
In turn, `CSc1ccc(C(=O)Nc2c(C)cccc2C)cc1` [Example 5, N-(2 6-dimethylphenyl)-4-(methylthio)benzamide] gave an ED50 of roughly 75 mg/kg.
For `Cc1cccc(C)c1NC(=O)c1ccc(N(C)C)cc1` [Example 6, 4-(Dimethylamino)-N-(2,6-dimethylphenyl)benzamide], the 50% effect level (ED50) was put at a dose of 3.65 mg/kg.
As for `CCNc1ccc(C(=O)Nc2c(C)cccc2C)cc1` [Example 7, N-(2,6-dimethylphenyl)-4-(ethylamino)benzamide], the 50% effect level (ED50) was put at a dose of 2.45 mg/kg. The ED50 values of the last two compounds are within 1.5-fold of each other.
The compound `CNc1ccc(C(=O)Nc2c(C)cccc2C)cc1` [Example 8, N-(2,6-dimethylphenyl)-4-(methylamino)benzamide] showed a 50% effective dose (ED50) of 2 mg/kg.
On to `CCCN(C)c1ccc(C(=O)Nc2c(C)cccc2C)cc1` [Example 9, N-(2,6-dimethylphenyl)-4-(methylpropylamino)benzamide], for which the ED50 came to 4.6 mg/kg.
`Cc1cccc(C)c1NC(=O)c1ccc(-n2ccnc2)cc1.Cl` [Example 10, N-(2,6-dimethylphenyl)-4-(1H-imidazol-1-yl)benzamide hydrochloride] yielded an ED50 of roughly 50 mg/kg.
Consider `Cc1cccc(C)c1NC(=O)c1ccc(CN)cc1.Cl` [Example 11, 4-(Aminomethyl)-N-(2,6-dimethylphenyl)benzamide hydrochloride], for which the 50% effect level (ED50) was put at a dose of 38 mg/kg.
The same measure, in the same setting: to `Cc1cccc(C)c1NC(=O)c1ccc(C(N)=O)cc1` [Example 12, N-(2,6-Dimethylphenyl)-1,4-benzenedicarboxamide] belongs roughly 75 mg/kg.
The same measure, in the same setting: with `Cc1cccc(C)c1NC(=O)c1ccc([S+](C)[O-])cc1` (stereo not shown) [Example 13, N-(2,6-dimethylphenyl)-4-(methylsulfinyl)benzamide] the figure was 13 mg/kg.
`Cc1cccc(C)c1NC(=O)c1ccc(S(C)(=O)=O)cc1` [Example 14, N-(2,6-dimethylphenyl)-4-(methylsulfonyl)benzamide] showed an ED50 of 14 mg/kg.
For the compound `Cc1cccc(C)c1NC(=O)c1ccc(O)cc1` [Example 15, N-(2,6-dimethylphenyl)-4-hydroxybenzamide], the ED50 worked out at 11.2 mg/kg. The ED50 values of the last two compounds are within 1.5-fold of each other.

The next assay has as its system seizures in man.
Assay: not given
To be noted: Gilman, Goodman, and Gilman, 6th Ed., p. 455; cited from earlier work.
For the compound `O=C1NC(=O)C(c2ccccc2)(c2ccccc2)N1` [phenytoin], the “plasma level at which seizures are controlled” value was no less than 10 µg/mL.
